Source: ChEMBL document CHEMBL6115030, “Systematic All-Hydrocarbon Stapling Analysis for Cecropin A Generates a Potent and Stable Antimicrobial Peptide” (J Med Chem, 2025)
In brackets after ≈: the same amount, converted by molar mass. Bridge positions count the residues as written; N and C are the ends. Square brackets hold non-standard residues; d marks the D form. Peptide text beside a SMILES is read from it. R5 = C=CCCC[C@@](C)(N)C(=O)O; S5 = C=CCCC[C@](C)(N)C(=O)O

Legend:
Assay type in all cases: functional
[1] = system: Klebsiella pneumoniae; assay: Antibacterial activity against Klebsiella pneumoniae ATCC 13883 assessed as inhibition of bacterial growth measured after 24 hrs by broth microdilution method
[2] = system: Pseudomonas aeruginosa; assay: Antibacterial activity against Pseudomonas aeruginosa PAO1 assessed as inhibition of bacterial growth measured after 24 hrs by broth microdilution method
[3] = system: Staphylococcus aureus; assay: Antibacterial activity against Staphylococcus aureus ATCC 25923 assessed as inhibition of bacterial growth measured after 24 hrs by broth microdilution method

| MIC [1] | MIC [2] | MIC [3] | SMILES |
| --- | --- | --- | --- |
| 25 µM (≈ 101 µg/mL) | > 100 µM | 6.25 µM (≈ 25.3 µg/mL) | CC[C@H](C)[C@@H]1NC(=O)CNC(=O)[C@](C)(NC(=O)[C@H](CCCNC(=N)N)NC(=O)[C@@H](NC(=O)[C@H](CC(N)=O)NC(=O)[C@H](CCC(N)=O)NC(=O)CNC(=O)[C@@H](NC(=O)[C@H](CCCCN)NC(=O)[C@H](CCC(=O)O)NC(=O)[C@@H](NC(=O)[C@H](CCCCN)NC(=O)[C@H](CCCCN)NC(=O)[C@H](Cc2ccccc2)NC(=O)[C@H](CC(C)C)NC(=O)[C@H](CCCCN)NC(=O)[C@H](Cc2c[nH]c3ccccc23)NC(=O)[C@H](CCCCN)NC(C)=O)[C@@H](C)CC)C(C)C)[C@@H](C)CC)CCC/C=C\CCC[C@](C)(C(=O)N[C@@H](C)C(=O)NCC(=O)N2CCC[C@H]2C(=O)N[C@@H](C)C(=O)N[C@H](C(=O)N[C@@H](C)C(=O)N[C@H](C(=O)N[C@H](C(=O)NCC(=O)N[C@@H](CCC(N)=O)C(=O)N[C@@H](C)C(=O)N[C@H](C(=O)N[C@@H](CCC(N)=O)C(=O)N[C@H](C(=O)N[C@@H](C)C(=O)N[C@@H](CCCCN)C(N)=O)[C@@H](C)CC)[C@@H](C)O)C(C)C)C(C)C)C(C)C)NC(=O)[C@H]([C@@H](C)CC)NC1=O (Ac-KWKLFKKIEKVGQNIR[R5]GII[R5]AGPAVAVVGQATQIAK-NH2; staple (Z) 17-21) |
| 6.25 µM (≈ 25.4 µg/mL) | > 100 µM | 25 µM (≈ 102 µg/mL) | CC[C@H](C)[C@H](NC(=O)CNC(=O)[C@H](CC(=O)O)NC(=O)[C@H](CCCNC(=N)N)NC(=O)[C@@H](NC(=O)[C@H](CC(N)=O)NC(=O)[C@H](CCC(N)=O)NC(=O)CNC(=O)[C@@H](NC(=O)[C@H](CCCCN)NC(=O)[C@H](CCC(=O)O)NC(=O)[C@]1(C)CCC/C=C\CCC[C@](C)(NC(=O)[C@H](CCCCN)NC(=O)[C@H](Cc2c[nH]c3ccccc23)NC(=O)[C@H](CCCCN)NC(C)=O)C(=O)N[C@@H](Cc2ccccc2)C(=O)N[C@@H](CCCCN)C(=O)N[C@@H](CCCCN)C(=O)N1)C(C)C)[C@@H](C)CC)C(=O)N[C@H](C(=O)N[C@@H](CCCCN)C(=O)N[C@@H](C)C(=O)NCC(=O)N1CCC[C@H]1C(=O)N[C@@H](C)C(=O)N[C@H](C(=O)N[C@@H](C)C(=O)N[C@H](C(=O)N[C@H](C(=O)NCC(=O)N[C@@H](CCC(N)=O)C(=O)N[C@@H](C)C(=O)N[C@H](C(=O)N[C@@H](CCC(N)=O)C(=O)N[C@H](C(=O)N[C@@H](C)C(=O)N[C@@H](CCCCN)C(N)=O)[C@@H](C)CC)[C@@H](C)O)C(C)C)C(C)C)C(C)C)[C@@H](C)CC (Ac-KWK[S5]FKK[S5]EKVGQNIRDGIIKAGPAVAVVGQATQIAK-NH2; staple (Z) 4-8) |
| 6.25 µM (≈ 25.2 µg/mL) | > 100 µM | 1.56 µM (≈ 6.3 µg/mL) | CC[C@H](C)[C@H](NC(=O)CNC(=O)[C@H](CC(=O)O)NC(=O)[C@H](CCCNC(=N)N)NC(=O)[C@@H](NC(=O)[C@H](CC(N)=O)NC(=O)[C@]1(C)CCC/C=C\CCC[C@](C)(NC(=O)[C@@H](NC(=O)[C@H](CCCCN)NC(=O)[C@H](CCCCN)NC(=O)[C@H](Cc2ccccc2)NC(=O)[C@H](CC(C)C)NC(=O)[C@H](CCCCN)NC(=O)[C@H](Cc2c[nH]c3ccccc23)NC(=O)[C@H](CCCCN)NC(C)=O)[C@@H](C)CC)C(=O)N[C@@H](CCCCN)C(=O)N[C@@H](C(C)C)C(=O)NCC(=O)N1)[C@@H](C)CC)C(=O)N[C@H](C(=O)N[C@@H](CCCCN)C(=O)N[C@@H](C)C(=O)NCC(=O)N1CCC[C@H]1C(=O)N[C@@H](C)C(=O)N[C@H](C(=O)N[C@@H](C)C(=O)N[C@H](C(=O)N[C@H](C(=O)NCC(=O)N[C@@H](CCC(N)=O)C(=O)N[C@@H](C)C(=O)N[C@H](C(=O)N[C@@H](CCC(N)=O)C(=O)N[C@H](C(=O)N[C@@H](C)C(=O)N[C@@H](CCCCN)C(N)=O)[C@@H](C)CC)[C@@H](C)O)C(C)C)C(C)C)C(C)C)[C@@H](C)CC (Ac-KWKLFKKI[S5]KVG[S5]NIRDGIIKAGPAVAVVGQATQIAK-NH2; staple (Z) 9-13) |
| 6.25 µM (≈ 25.8 µg/mL) | > 100 µM | 6.25 µM (≈ 25.8 µg/mL) | CC[C@H](C)[C@H](NC(=O)CNC(=O)[C@H](CC(=O)O)NC(=O)[C@H](CCCNC(=N)N)NC(=O)[C@@H](NC(=O)[C@H](CC(N)=O)NC(=O)[C@H](CCC(N)=O)NC(=O)[C@]1(C)CCC/C=C\CCC[C@](C)(NC(=O)[C@H](CCCCN)NC(=O)[C@H](CCCCN)NC(=O)[C@H](Cc2ccccc2)NC(=O)[C@H](CC(C)C)NC(=O)[C@H](CCCCN)NC(=O)[C@H](Cc2c[nH]c3ccccc23)NC(=O)[C@H](CCCCN)NC(C)=O)C(=O)N[C@@H](CCC(=O)O)C(=O)N[C@@H](CCCCN)C(=O)N[C@@H](C(C)C)C(=O)N1)[C@@H](C)CC)C(=O)N[C@H](C(=O)N[C@@H](CCCCN)C(=O)N[C@@H](C)C(=O)NCC(=O)N1CCC[C@H]1C(=O)N[C@@H](C)C(=O)N[C@H](C(=O)N[C@@H](C)C(=O)N[C@H](C(=O)N[C@H](C(=O)NCC(=O)N[C@@H](CCC(N)=O)C(=O)N[C@@H](C)C(=O)N[C@H](C(=O)N[C@@H](CCC(N)=O)C(=O)N[C@H](C(=O)N[C@@H](C)C(=O)N[C@@H](CCCCN)C(N)=O)[C@@H](C)CC)[C@@H](C)O)C(C)C)C(C)C)C(C)C)[C@@H](C)CC (Ac-KWKLFKK[S5]EKV[S5]QNIRDGIIKAGPAVAVVGQATQIAK-NH2; staple (Z) 8-12) |
| 6.25 µM (≈ 25.2 µg/mL) | 100 µM (≈ 403 µg/mL) | 12.5 µM (≈ 50.3 µg/mL) | CC[C@H](C)[C@@H]1NC(=O)CNC(=O)[C@H](CC(=O)O)NC(=O)[C@@](C)(NC(=O)[C@@H](NC(=O)[C@H](CC(N)=O)NC(=O)[C@H](CCC(N)=O)NC(=O)CNC(=O)[C@@H](NC(=O)[C@H](CCCCN)NC(=O)[C@H](CCC(=O)O)NC(=O)[C@@H](NC(=O)[C@H](CCCCN)NC(=O)[C@H](CCCCN)NC(=O)[C@H](Cc2ccccc2)NC(=O)[C@H](CC(C)C)NC(=O)[C@H](CCCCN)NC(=O)[C@H](Cc2c[nH]c3ccccc23)NC(=O)[C@H](CCCCN)NC(C)=O)[C@@H](C)CC)C(C)C)[C@@H](C)CC)CCC/C=C\CCC[C@@](C)(C(=O)N[C@@H](CCCCN)C(=O)N[C@@H](C)C(=O)NCC(=O)N2CCC[C@H]2C(=O)N[C@@H](C)C(=O)N[C@H](C(=O)N[C@@H](C)C(=O)N[C@H](C(=O)N[C@H](C(=O)NCC(=O)N[C@@H](CCC(N)=O)C(=O)N[C@@H](C)C(=O)N[C@H](C(=O)N[C@@H](CCC(N)=O)C(=O)N[C@H](C(=O)N[C@@H](C)C(=O)N[C@@H](CCCCN)C(N)=O)[C@@H](C)CC)[C@@H](C)O)C(C)C)C(C)C)C(C)C)NC1=O (Ac-KWKLFKKIEKVGQNI[S5]DGI[S5]KAGPAVAVVGQATQIAK-NH2; staple (Z) 16-20) |
| 6.25 µM (≈ 25.3 µg/mL) | 100 µM (≈ 405 µg/mL) | 50 µM (≈ 203 µg/mL) | CC[C@H](C)[C@H](NC(=O)CNC(=O)[C@]1(C)CCC/C=C\CCC[C@](C)(NC(=O)CNC(=O)[C@@H](NC(=O)[C@H](CCCCN)NC(=O)[C@H](CCC(=O)O)NC(=O)[C@@H](NC(=O)[C@H](CCCCN)NC(=O)[C@H](CCCCN)NC(=O)[C@H](Cc2ccccc2)NC(=O)[C@H](CC(C)C)NC(=O)[C@H](CCCCN)NC(=O)[C@H](Cc2c[nH]c3ccccc23)NC(=O)[C@H](CCCCN)NC(C)=O)[C@@H](C)CC)C(C)C)C(=O)N[C@@H](CC(N)=O)C(=O)N[C@@H]([C@@H](C)CC)C(=O)N[C@@H](CCCNC(=N)N)C(=O)N1)C(=O)N[C@H](C(=O)N[C@@H](CCCCN)C(=O)N[C@@H](C)C(=O)NCC(=O)N1CCC[C@H]1C(=O)N[C@@H](C)C(=O)N[C@H](C(=O)N[C@@H](C)C(=O)N[C@H](C(=O)N[C@H](C(=O)NCC(=O)N[C@@H](CCC(N)=O)C(=O)N[C@@H](C)C(=O)N[C@H](C(=O)N[C@@H](CCC(N)=O)C(=O)N[C@H](C(=O)N[C@@H](C)C(=O)N[C@@H](CCCCN)C(N)=O)[C@@H](C)CC)[C@@H](C)O)C(C)C)C(C)C)C(C)C)[C@@H](C)CC (Ac-KWKLFKKIEKVG[S5]NIR[S5]GIIKAGPAVAVVGQATQIAK-NH2; staple (Z) 13-17) |
| 6.25 µM (≈ 25.6 µg/mL) | 6.25 µM (≈ 25.6 µg/mL) | 3.13 µM (≈ 12.8 µg/mL) | CC[C@H](C)[C@H](NC(=O)CNC(=O)[C@H](CC(=O)O)NC(=O)[C@H](CCCNC(=N)N)NC(=O)[C@@H](NC(=O)[C@H](CC(N)=O)NC(=O)[C@H](CCC(N)=O)NC(=O)CNC(=O)[C@@H](NC(=O)[C@H](CCCCN)NC(=O)[C@H](CCC(=O)O)NC(=O)[C@@H](NC(=O)[C@H](CCCCN)NC(=O)[C@H](CCCCN)NC(=O)[C@H](Cc1ccccc1)NC(=O)[C@H](CC(C)C)NC(=O)[C@H](CCCCN)NC(=O)[C@H](Cc1c[nH]c2ccccc12)NC(=O)[C@H](CCCCN)NC(C)=O)[C@@H](C)CC)C(C)C)[C@@H](C)CC)C(=O)N[C@H](C(=O)N[C@@H](CCCCN)C(=O)N[C@@H](C)C(=O)NCC(=O)N1CCC[C@H]1C(=O)N[C@@H](C)C(=O)N[C@H](C(=O)N[C@@]1(C)CCC/C=C\CCC[C@@](C)(C(=O)N[C@@H](C)C(=O)N[C@H](C(=O)N[C@@H](CCC(N)=O)C(=O)N[C@H](C(=O)N[C@@H](C)C(=O)N[C@@H](CCCCN)C(N)=O)[C@@H](C)CC)[C@@H](C)O)NC(=O)CNC(=O)[C@H](C(C)C)NC(=O)[C@H](C(C)C)NC1=O)C(C)C)[C@@H](C)CC (Ac-KWKLFKKIEKVGQNIRDGIIKAGPAV[S5]VVG[S5]ATQIAK-NH2; staple (Z) 27-31) |
| 6.25 µM (≈ 25.4 µg/mL) | > 100 µM | > 100 µM | CC[C@H](C)[C@H](NC(=O)CNC(=O)[C@H](CC(=O)O)NC(=O)[C@H](CCCNC(=N)N)NC(=O)[C@@H](NC(=O)[C@H](CC(N)=O)NC(=O)[C@H](CCC(N)=O)NC(=O)CNC(=O)[C@]1(C)CCC/C=C\CCC[C@](C)(NC(=O)[C@H](CCCCN)NC(=O)[C@H](Cc2ccccc2)NC(=O)[C@H](CC(C)C)NC(=O)[C@H](CCCCN)NC(=O)[C@H](Cc2c[nH]c3ccccc23)NC(=O)[C@H](CCCCN)NC(C)=O)C(=O)N[C@@H]([C@@H](C)CC)C(=O)N[C@@H](CCC(=O)O)C(=O)N[C@@H](CCCCN)C(=O)N1)[C@@H](C)CC)C(=O)N[C@H](C(=O)N[C@@H](CCCCN)C(=O)N[C@@H](C)C(=O)NCC(=O)N1CCC[C@H]1C(=O)N[C@@H](C)C(=O)N[C@H](C(=O)N[C@@H](C)C(=O)N[C@H](C(=O)N[C@H](C(=O)NCC(=O)N[C@@H](CCC(N)=O)C(=O)N[C@@H](C)C(=O)N[C@H](C(=O)N[C@@H](CCC(N)=O)C(=O)N[C@H](C(=O)N[C@@H](C)C(=O)N[C@@H](CCCCN)C(N)=O)[C@@H](C)CC)[C@@H](C)O)C(C)C)C(C)C)C(C)C)[C@@H](C)CC (Ac-KWKLFK[S5]IEK[S5]GQNIRDGIIKAGPAVAVVGQATQIAK-NH2; staple (Z) 7-11) |
